Assay results as given in US20060135624A1, “Natural compound useful for treating diabetes, its preparation and use” (JINGYU LIANG ET AL, priority 2002, published 2006).

Key:
[1] = system: mouse hyperglycemia induced by alloxan; assay: Time-effect relation of Sequoyitol to mouse hyperglycemia induced by alloxan; format: in vivo, Kunming mice; conditions: phenformine 75 mg/kg p.o. 7 days
Description: 1. Experimental Methods^[1,2] • Alloxan was administrated to each of 30 mice by caudal vein injection with a dose of 65 mg/kg, and the mice were modeled according to the method of documents, divided into 3 groups according to blood-sugar values, […] according to […] of body weight, and the modeling group was administrated with the same volum of distilled water, separately. These administrations were conducted for continuous 7 days, and the mice were fasted for 2 hours before the last administration, and their blood-sugar levels were detected by glucose oxidase method at 1 2, 3 and 5 hours after the last administration.

[2] = system: mouse hyperglycemia induced by alloxan; assay: Effects of Sequoyitol on mouse hyperglycemia induced by alloxan; format: in vivo, Kunming mice; conditions: phenformine 75 mg/kg p.o. 7 days
Description: 1. Experimental Methods^[1,2] • Among 60 mice, 10 mice were randomly selected as normal group, and the residual mice were administrated with 65 mg/kg alloxan by caudal vein injection, modeled according to the method of documents, and divided into 5 groups according to blood-sugar values, wherein 4 groups were perorally administrated with 25, 50 and 100 mg/kg of Sequoyitol and 75 mg/kg of phenformine according to 0.1 ml/10 g of body weight, respectively, and the normal group and modeling group were administrated with the same volum of distilled water, separately. These administrations were conducted for continuous 7 days. The blood-sugar levels were detected by glucose oxidase method. The pancreatic glands of the mice were soaked in 10% formalin, embedded with paraffin, sliced, and dyed with HE dye.

[3] = system: mouse hyperglycemia induced by glucose; assay: Effect of Sequoyitol on mouse hyperglycemia induced by glucose; format: in vivo, Kunming mice; conditions: phenformine 75 mg/kg oral 7 days; 30, 60, 90, 120 minutes after i.p. glucose
Description: 1. Experimental Method^[4] • 72 Mice were randomly divided into 6 groups, […] according to 0.1 ml/10 g of body weight, respectively, and the normal group and modeling group were administrated with the same volum of distilled water. These administrations were conducted for continuous 7 days. The normal group was administrated with the same volum of physiological saline by injection, while other groups were administrated with […] of glucose by intra-abdominal injection. After 30, 60, 90 and 120 minutes of administration, bloods were collected from venous plexus behind fossa orbitalis, the serums were separated, and the blood-sugar levels were separately detected by glucose oxidase method.

[4] = system: rat hyperglycemia induced by alloxan; assay: Effect of Sequoyitol on rat hyperglycemia induced by alloxan; format: in vivo, SD rats
Description: 1. Experimental Methods^[5,6] • 5 Rats were randomly selected as normal group, the other 55 rats were fasted for 14-16 hours, administrated with 30 mg/kg of Pentobarbital by intra-abdominal injection. After paralyzed, the rats were administrated with 48 mg/kg of alloxan by vena femoralis injection, modeled according to methods of documents, and divided into 5 groups according to blood-sugar level, wherein each group had 11 rats, and 4 groups were orally administrated with 25, 50 and 100 mg/kg of Sequoyitol and 75 mg/kg of phenformine according to 1 ml/100 g of body weight, respectively, and the normal group and modeling group were administrated with the same volum of distilled water. These administrations were conducted for continuous 18 days. The fasting blood-sugar levels of the rats were separately measured at 6th and 12th day after the administration. At the 18th day, blood was collected from arteria femoralis, and the blood sugar level, insulin level, cholesterol content, triglyceride content, malonaldehyde content, and hepatocuprein activity of serum were measured; liver tissue was homogenated, and the malonaldehyde content, and hepatocuprein activity of liver tissue were measured; and pancreatic gland was soaked in 10% formalin, embedded with paraffin, sliced, and dyed with HE.

[5] = system: mouse hyperglycemia induced by Streptozocin; assay: Effect of Sequoyitol on mouse hyperglycemia induced by Streptozocin; format: in vivo, Kunming mice
Description: 1. Experimental Methods^[7,8] • Among 66 mice, 10 mice were randomly selected as normal group, and the residual mice were administrated with 160 mg/kg Streptozocin by vena caudalis injection, modeled according to methods of documents, and divided into 5 groups according to blood-sugar level, wherein 4 groups were perorally administrated with 25, 50 and 100 mg/kg of Sequoyitol and 75 mg/kg of phenformine according to 0.1 ml/10 g of body weight, respectively, and the normal group and modeling group were administrated with the same volum of distilled water. These administrations were conducted for continuous 18 days. The blood-sugar levels of the mice were separately measured at 6th and 12th day after the administration. At the 18th day, blood was collected by excising eyeballs, serum was separated, and the blood sugar level, insulin level, cholesterol content, triglyceride content, malonaldehyde content, and hepatocuprein activity of serum were measured; liver tissue was homogenated, and the malonaldehyde content and hepatocuprein activity of liver tissue were measured; and pancreatic gland was soaked in 10% formalin, embedded with paraffin, sliced, and dyed with HE.

[6] = system: blood-sugar level of normal mice; assay: Effect of Sequoyitol on blood-sugar level of normal mice; format: in vivo, Kunming mice; conditions: Glibenclamide 50 mg/kg oral 7 days
Description: 1. Experimental Method^[3] • 60 Mice were randomly divided into 5 groups, […] according to 0.1 ml/10 g of body weight, respectively, and the normal group was administrated with the same volum of the same volum of distilled water. These administrations were conducted for continuous 7 days. The blood-sugar levels were detected by glucose oxidase method.

[7] = system: mouse hyperglycemia induced by adrenalin; assay: Effect of Sequoyitol on mouse hyperglycemia induced by adrenalin; format: in vivo, Kunming mice; conditions: Glibenclamide 10 mg/kg oral 7 days
Description: 1. Experimental Methods^[3] • 72 Mice were randomly divided into 6 groups, wherein 4 groups were orally administrated with 25, 50 and 100 mg/kg of Sequoyitol and 10 mg/kg of Glibenclamide according to 0,1 ml/10 g of body weight, respectively, and the normal group and modeling group were administrated with the same volum of distilled water. These administrations were conducted for continuous 7 days. The normal group was administrated with the same volum of physiological saline by injection, while other groups were administrated with 0.2 mg/kg of adrenalin by intra-abdominal injection. The blood-sugar levels were detected by glucose oxidase method after 30 minutes of administration. The livers of the mice were collected, and hepatic glycogen levels were detected by anthrone method.

[8] = phenformine 75 mg/kg oral 18 days
[9] = phenformine 75 mg/kg p.o. 18 days

[H]/N=C(/N)N/C(=N/[H])NCCc1ccccc1 [phenformine, reference compound]
blood-sugar level decreased compared to the control group ([1]; 1 hour after last administration): 163.1 mg/dL | blood-sugar level decreased compared to the control group ([1]; 2 hours after last administration): 159.3 mg/dL | blood-sugar level decreased compared to the control group ([1]; 3 hours after last administration): 104.2 mg/dL | blood-sugar level decreased compared to the control group ([1]; 5 hours after last administration): 56.6 mg/dL | blood-sugar level decreased compared to the control group [2]: 152.8 mg/dL | number of pancreatic islands and number of islet cells (histopathologic examination) compared to the model group [2]: increased slightly | glucose-induced hyperglycemia compared to the control group [3]: highly significantly alleviated | body weight of rats compared to the control group ([4]; phenformine 75 mg/kg oral): did not significantly change | activity of hepatocuprein in liver tissue compared to the control group [4, 8]: did not significantly change | activity of hepatocuprein in serum compared to the control group [4, 8]: did not significantly change | content of cholesterol in serum compared to the control group [4, 8]: did not significantly change | content of malonaldehyde in liver tissue compared to the control group [4, 8]: decreased slightly | content of malonaldehyde in serum compared to the control group [4, 8]: decreased slightly | content of triglyceride in serum compared to the control group [4, 8]: did not significantly change | serum insulin level compared to the control group [4, 8]: increased | alloxan-induced hyperglycemia compared to the control group ([4]; phenformine 75 mg/kg oral, since the 6th day): highly significantly alleviated | body weight of mice compared to the control group ([5]; phenformine 75 mg/kg p.o.): did not significantly change | activity of hepatocuprein in serum compared to the control group [5, 9]: did not significantly change | content of cholesterol in serum compared to the control group [5, 9]: did not significantly change | content of malonaldehyde in liver tissue compared to the control group [5, 9]: did not significantly change | content of triglyceride in serum compared to the control group [5, 9]: did not significantly change | hyalinization of interstitial small vessels (histopathologic examination) [5, 9]: not alleviated | number of pancreatic islands and number of cells in pancreatic islands (histopathologic examination) [5, 9]: slightly increased | serum insulin level compared to the control group [5, 9]: increased | Streptozocin-induced hyperglycemia compared to the control group ([5]; phenformine 75 mg/kg p.o., 12th day): significantly alleviated

COc1ccc(Cl)cc1C(=O)NCCc1ccc(S(=O)(=O)NC(=O)NC2CCCCC2)cc1 [Glibenclamide, reference compound]
blood-sugar level decreased compared to the normal group [6]: 19.3 mg/dL | blood-sugar level decreased compared to the control group ([7]; 30 minutes after adrenalin 0.2 mg/kg i.p.): 40.1 mg/dL | hepatic glycogen level increased compared to the control group ([7]; adrenalin model): 1.28 mg/g of liver tissue
